Measured values reported in PubChem BioAssay AID248 (DTP/NCI, 2004).
Values joined by “and” are separate entries in the source; they are usually repeats but may differ in a detail not shown here. Equal entries are not always repeated. Inconclusive results and toxic doses are left out. Rule as the data show it: active = T/C of 150% or more; inactive = T/C below 125%.

Tested on: L1210 leukemia ip in BDF1 mice, survival T/C
Assay: NCI In Vivo Anticancer Drug Screen. Data for tumor model L1210 Leukemia (intraperitoneal) in B6D2F1 (BDF1) mice
Conditions: higher = longer survival
In short: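 Transplantable tumor model; survival measured in treated vs vehicle control mice. Value = treated/control.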

[1] = endpoint: mean survival time, dose: 100.0 mg/kg/injection, schedule: Q01DX009 (ip), vehicle: Klucel (hydroxypropylcellulose) (HPC)
[2] = endpoint: mean survival time, dose: 200.0 mg/kg/injection, schedule: Q01DX009 (ip), vehicle: Klucel (hydroxypropylcellulose) (HPC)
[3] = endpoint: mean survival time, dose: 400.0 mg/kg/injection, schedule: Q01DX009 (ip), vehicle: Klucel (hydroxypropylcellulose) (HPC)
[4] = endpoint: mean survival time, dose: 100.0 mg/kg/injection, schedule: Q04DX003 (ip), vehicle: saline
[5] = endpoint: mean survival time, dose: 100.0 mg/kg/injection, schedule: Q04DX003 (ip), vehicle: Klucel (hydroxypropylcellulose) (HPC)
[6] = endpoint: mean survival time, dose: 200.0 mg/kg/injection, schedule: Q04DX003 (ip), vehicle: Klucel (hydroxypropylcellulose) (HPC)
[7] = endpoint: mean survival time, dose: 400.0 mg/kg/injection, schedule: Q04DX003 (ip), vehicle: Klucel (hydroxypropylcellulose) (HPC)
[8] = endpoint: mean survival time, dose: 100.0 mg/kg/injection, schedule: Q01DX001 (ip), vehicle: saline
[9] = endpoint: mean survival time, dose: 200.0 mg/kg/injection, schedule: Q01DX001 (ip), vehicle: saline
[10] = endpoint: mean survival time, dose: 400.0 mg/kg/injection, schedule: Q01DX001 (ip), vehicle: saline
[11] = endpoint: mean survival time, dose: 100.0 mg/kg/injection, schedule: Q01DX001 (ip), vehicle: Klucel (hydroxypropylcellulose) (HPC)
[12] = endpoint: mean survival time, dose: 200.0 mg/kg/injection, schedule: Q01DX001 (ip), vehicle: Klucel (hydroxypropylcellulose) (HPC)
[13] = endpoint: mean survival time, dose: 400.0 mg/kg/injection, schedule: Q01DX001 (ip), vehicle: Klucel (hydroxypropylcellulose) (HPC)
[14] = endpoint: mean survival time, dose: 25.0 mg/kg/injection, schedule: Q01DX009 (ip), vehicle: Klucel (hydroxypropylcellulose) (HPC)
[15] = endpoint: mean survival time, dose: 50.0 mg/kg/injection, schedule: Q01DX001 (ip), vehicle: saline

Measured: T/C

CCOC(=O)c1ccc(NC(=O)Oc2cc(C)ccc2C(C)C)cc1
inactive: [1] 94 % of control | [2] 94 % of control | [3] 94 % of control

CCNC(=O)C1C2CCC(C2)C1C(=O)NCC (centres undefined)
inactive: [4] 104 % of control | endpoint: mean survival time, dose: 200.0 mg/kg/injection, schedule: Q04DX003 (ip), vehicle: saline 87 % of control | endpoint: mean survival time, dose: 400.0 mg/kg/injection, schedule: Q04DX003 (ip), vehicle: saline 96 % of control

CCC(=O)C(=O)Cc1cc[n+]([O-])c2ccccc12
inactive: [5] 102 % of control | [6] 97 % of control | [7] 113 % of control

OC(COc1c(Cl)c(Cl)c(Cl)c(Cl)c1Cl)CN1CCN(c2ccccc2Cl)CC1 (centres undefined)
inactive: [8] 95 % of control | [9] 92 % of control | [10] 92 % of control

Cc1cc2c(cc1C)-c1ccccc1C2=O
inactive: endpoint: mean survival time, dose: 100.0 mg/kg/injection, schedule: Q01DX001 (ip), vehicle: carboxymethylcellulose (CMC) 102 % of control | endpoint: mean survival time, dose: 200.0 mg/kg/injection, schedule: Q01DX001 (ip), vehicle: carboxymethylcellulose (CMC) 102 % of control | endpoint: mean survival time, dose: 400.0 mg/kg/injection, schedule: Q01DX001 (ip), vehicle: carboxymethylcellulose (CMC) 96 % of control

NC(Cc1cc(I)c(Oc2cc(I)c(O)c(I)c2)c(I)c1)C(=O)O (centres undefined)
inactive: endpoint: median survival time, dose: 0.63 mg/kg/injection, schedule: Q01DX009 (ip), vehicle: saline 98 % of control | endpoint: median survival time, dose: 2.5 mg/kg/injection, schedule: Q01DX009 (ip), vehicle: saline 92 % of control | endpoint: median survival time, dose: 10.0 mg/kg/injection, schedule: Q01DX009 (ip), vehicle: saline 88 % of control | endpoint: median survival time, dose: 40.0 mg/kg/injection, schedule: Q01DX009 (ip), vehicle: saline 93 % of control

CC(=O)Nc1ccc(S(=O)(=O)CO)cc1
inactive: [11] 102 % of control | [12] 102 % of control | [13] 102 % of control

COC(=O)C1(C(=O)OC)C(c2ccccc2)C1(C(=O)OC)C(=O)OC
inactive: endpoint: mean survival time, dose: 12.5 mg/kg/injection, schedule: Q01DX009 (ip), vehicle: saline with Tween-80 94 % of control | endpoint: mean survival time, dose: 25.0 mg/kg/injection, schedule: Q01DX009 (ip), vehicle: saline with Tween-80 98 % of control | endpoint: mean survival time, dose: 50.0 mg/kg/injection, schedule: Q01DX009 (ip), vehicle: saline with Tween-80 94 % of control | endpoint: mean survival time, dose: 100.0 mg/kg/injection, schedule: Q01DX009 (ip), vehicle: saline with Tween-80 91 % of control

CCCCNC(=O)Nc1cc(Cl)ccc1C
inactive: endpoint: mean survival time, dose: 3.12 mg/kg/injection, schedule: Q01DX009 (ip), vehicle: Klucel (hydroxypropylcellulose) (HPC) 97 % of control | endpoint: mean survival time, dose: 6.25 mg/kg/injection, schedule: Q01DX009 (ip), vehicle: Klucel (hydroxypropylcellulose) (HPC) 92 % of control | endpoint: mean survival time, dose: 12.5 mg/kg/injection, schedule: Q01DX009 (ip), vehicle: Klucel (hydroxypropylcellulose) (HPC) 101 % of control and 90 % of control | [14] 89 % of control | [1] 94 % of control and 86 % of control | [5] 95 % of control | [6] 90 % of control | [7] 90 % of control

COC(=O)C(N=Nc1ccc(C)cc1)C(C)=O (centres undefined)
inactive: [14] 97 % of control | endpoint: mean survival time, dose: 50.0 mg/kg/injection, schedule: Q01DX009 (ip), vehicle: Klucel (hydroxypropylcellulose) (HPC) 94 % of control | [1] 89 % of control

S=c1ncn(C2CCCCC2)c(=S)[nH]1
inactive: [5] 95 % of control | [7] 102 % of control

N#CCc1cc2c(cc1[N+](=O)[O-])OCO2
inactive: [8] 97 % of control | [9] 87 % of control | [10] 97 % of control

O=C(O)/C=C\C(=O)Nc1ccccc1[N+](=O)[O-]
inactive: endpoint: mean survival time, dose: 100.0 mg/kg/injection, schedule: Q04DX002 (ip), vehicle: Klucel (hydroxypropylcellulose) (HPC) 90 % of control | endpoint: mean survival time, dose: 200.0 mg/kg/injection, schedule: Q04DX002 (ip), vehicle: Klucel (hydroxypropylcellulose) (HPC) 114 % of control | endpoint: mean survival time, dose: 400.0 mg/kg/injection, schedule: Q04DX002 (ip), vehicle: Klucel (hydroxypropylcellulose) (HPC) 104 % of control

COCCN(N=O)C(=O)NC1CCCCC1
inactive: endpoint: mean survival time, dose: 700.0 mg/kg/injection, schedule: Q01DX001 (ip), vehicle: carboxymethylcellulose (CMC) 124 % of control | endpoint: mean survival time, dose: 800.0 mg/kg/injection, schedule: Q01DX001 (ip), vehicle: carboxymethylcellulose (CMC) 124 % of control | endpoint: mean survival time, dose: 1000.0 mg/kg/injection, schedule: Q01DX001 (ip), vehicle: carboxymethylcellulose (CMC) 117 % of control

COC(=O)/C=C\C(=O)OC
inactive: [5] 95 % of control | [6] 100 % of control | [7] 100 % of control

Clc1ccc(/C=N/c2ccccn2)cc1
inactive: [8] 102 % of control | [9] 102 % of control | [10] 100 % of control

OCC1OC(n2cnc3c([Se]Cc4ccccc4)ncnc32)C(O)C1O (centres undefined)
inactive: endpoint: mean survival time, dose: 1.56 mg/kg/injection, schedule: Q01DX005 (ip), vehicle: saline 97 % of control | endpoint: mean survival time, dose: 3.12 mg/kg/injection, schedule: Q01DX005 (ip), vehicle: saline 94 % of control | endpoint: mean survival time, dose: 3.12 mg/kg/injection, schedule: Q01DX009 (ip), vehicle: saline 103 % of control | endpoint: mean survival time, dose: 6.25 mg/kg/injection, schedule: Q01DX005 (ip), vehicle: saline 97 % of control | endpoint: mean survival time, dose: 6.25 mg/kg/injection, schedule: Q01DX009 (ip), vehicle: saline 95 % of control | endpoint: mean survival time, dose: 12.5 mg/kg/injection, schedule: Q01DX005 (ip), vehicle: saline 110 % of control | endpoint: mean survival time, dose: 12.5 mg/kg/injection, schedule: Q01DX009 (ip), vehicle: saline 105 % of control

Brc1cc(Br)c(N=Nc2c(Br)cc(Br)cc2Br)c(Br)c1
inactive: [15] 95 % of control | [8] 95 % of control | [9] 95 % of control | [10] 101 % of control

CC(=O)c1cccc(NC(=O)c2c(Br)c(Br)c(Br)c(Br)c2C(=O)O)c1
inactive: [1] 97 % of control | [2] 104 % of control | [3] 109 % of control

CNC(C)Cc1ccccc1OC (centres undefined)
inactive: endpoint: mean survival time, dose: 25.0 mg/kg/injection, schedule: Q04DX003 (ip), vehicle: saline 103 % of control | endpoint: mean survival time, dose: 50.0 mg/kg/injection, schedule: Q04DX003 (ip), vehicle: saline 101 % of control | [4] 92 % of control

O=C(O)C1CCCCC1C(=O)N(Cc1ccccc1)Cc1ccccc1 (centres undefined)
inactive: [1] 98 % of control | [2] 102 % of control | [3] 90 % of control

CC(=NC1CC(C)CC(C)(C)C1)C1CC1 (centres undefined)
inactive: endpoint: mean survival time, dose: 55.0 mg/kg/injection, schedule: Q01DX Z (ip), vehicle: methylcellulose (MC) 100 % of control | endpoint: mean survival time, dose: 83.0 mg/kg/injection, schedule: Q01DX Z (ip), vehicle: methylcellulose (MC) 89 % of control | endpoint: mean survival time, dose: 125.0 mg/kg/injection, schedule: Q01DX Z (ip), vehicle: methylcellulose (MC) 100 % of control

O/N=C/c1ccc(Cl)cc1Cl
inactive: endpoint: mean survival time, dose: 50.0 mg/kg/injection, schedule: Q04DX003 (ip), vehicle: Klucel (hydroxypropylcellulose) (HPC) 97 % of control | [11] 94 % of control | [5] 95 % of control | [12] 97 % of control | [6] 97 % of control | [13] 102 % of control

CCC1=C/C(=C\c2ccc3c(c2)OCO3)C(=O)S1
inactive: endpoint: mean survival time, dose: 200.0 mg/kg/injection, schedule: Q04DX002 (ip), vehicle: saline with Tween-80 89 % of control | endpoint: mean survival time, dose: 400.0 mg/kg/injection, schedule: Q04DX002 (ip), vehicle: saline with Tween-80 89 % of control

CCOC(=O)c1ccc(NC(=O)Nc2cc(C(F)(F)F)ccc2Cl)cc1
inactive: [1] 100 % of control | [2] 104 % of control | [3] 95 % of control

O=C(Nc1ccccc1)Oc1c(Cl)cc(Cl)cc1Cl
inactive: endpoint: mean survival time, dose: 0.78 mg/kg/injection, schedule: Q04DX002 (ip), vehicle: Klucel (hydroxypropylcellulose) (HPC) 97 % of control | endpoint: mean survival time, dose: 1.56 mg/kg/injection, schedule: Q04DX002 (ip), vehicle: Klucel (hydroxypropylcellulose) (HPC) 112 % of control | endpoint: mean survival time, dose: 3.13 mg/kg/injection, schedule: Q04DX002 (ip), vehicle: Klucel (hydroxypropylcellulose) (HPC) 94 % of control | endpoint: mean survival time, dose: 6.25 mg/kg/injection, schedule: Q04DX002 (ip), vehicle: Klucel (hydroxypropylcellulose) (HPC) 92 % of control | endpoint: mean survival time, dose: 12.5 mg/kg/injection, schedule: Q04DX002 (ip), vehicle: Klucel (hydroxypropylcellulose) (HPC) 110 % of control | endpoint: mean survival time, dose: 25.0 mg/kg/injection, schedule: Q04DX002 (ip), vehicle: Klucel (hydroxypropylcellulose) (HPC) 95 % of control

CNC(=O)C(c1ccccc1)C(O)c1ccccc1 (centres undefined)
inactive: [15] 103 % of control | [8] 101 % of control | [9] 103 % of control

Cc1ccccc1S(=O)(=O)/C(=C(/I)c1ccccc1)c1ccccc1
inactive: [8] 90 % of control | [9] 92 % of control | [10] 95 % of control

O=C(CCCNC(=O)OCc1ccccc1)NCCCCCCNCCCCCCNC(=O)CCCNC(=O)OCc1ccccc1
inactive: [15] 95 % of control | [8] 95 % of control | [9] 98 % of control | [10] 98 % of control
